From PubChem BioAssay (NCI)
Several values for one entry are separate records, joined by “and”; a condition that tells them apart may be missing. Equal values may be shown once.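 Following 48 hours of exposure in 96-well plates, responses at five concentrations were used to interpolate endpoints linearly. Here, GI50 denotes the concentration required for 50% inhibition of growth. TGI is the concentration that stops growth completely.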

Tests used:
Assay in all cases: NCI-60 cell line screen, 48 h
BT-549 breast = tested on: BT-549 breast
EKVX NSCLC = tested on: EKVX NSCLC
HL-60(TB) leukemia = tested on: HL-60(TB) leukemia
HT29 colon = tested on: HT29 colon
OVCAR-4 ovarian = tested on: OVCAR-4 ovarian
OVCAR-8 ovarian = tested on: OVCAR-8 ovarian
SF-268 CNS = tested on: SF-268 CNS
SNB-19 CNS = tested on: SNB-19 CNS

Structure (SMILES)	GI50 (BT-549 breast) [µM]	TGI (BT-549 breast) [µM]	GI50 (EKVX NSCLC) [µM]	TGI (EKVX NSCLC) [µM]	GI50 (HL-60(TB) leukemia)	TGI (HL-60(TB) leukemia) [µM]	GI50 (HT29 colon) [µM]	TGI (HT29 colon) [µM]	GI50 (OVCAR-4 ovarian)	TGI (OVCAR-4 ovarian) [µM]	GI50 (OVCAR-8 ovarian)	TGI (OVCAR-8 ovarian) [µM]	GI50 (SF-268 CNS)	TGI (SF-268 CNS) [µM]	GI50 (SNB-19 CNS) [µM]	TGI (SNB-19 CNS) [µM]
COc1ccc2nc3cc([N+](=O)[O-])ccc3c(NCCCN(CCO)CCO)c2c1	5.58	12.8	7.48	18.4	2.56 µM	22.7	2.03	5.21	3.81 µM	11.4	3.31 µM	11.2	4.09 µM	10.8	5.68	18.6
Clc1ccc(C(c2ccc(Cl)cc2)N2CCNCC2)cc1		38.3		10.4		4.57		4.51		6.95		3.28		19.7		21.3
CCCCOC(=O)c1ccc(NC(=O)CCl)cc1	2.2	7.7	2.37	7.13	2.28 µM	4.86	1.9	3.48			2.29 µM	4.73	1.78 µM	4.05	1.62	3.22
C[n+]1c2ccccc2c(Nc2ccc(NS(=O)(=O)CCCCN=C(N)N)cc2)c2ccc(N)cc21	35.2	> 100			1.64 µM	> 56.1	1.02	84.5	5.4 µM	> 100	2.48 µM	> 100	2.16 µM	> 85.5	0.444	> 100
COc1cc(F)cc([C@@H](CO)NC(=O)[C@@H](C)N2Cc3ccc(-c4nc(NC5CCOCC5)ncc4Cl)cc3C2=O)c1	5.43	24.3	0.108	66	< 0.01 µM	0.859	< 0.01	> 54.2	7.91 µM	> 91.6	13.6 µM	64.8	14.1 µM	99.6	1.73	> 100
COc1ccc(-c2nn(-c3cccc(Cl)c3)cc2-c2c(C#N)c(=O)n3[nH]c(-c4ccc(C)cc4)nc3c2C#N)cc1	3.79	14.8	1.62	9.2	8.33 µM	29.6	1.49	> 50	1.09 µM	4	0.818 µM	2.99	1.62 µM	7.76	2.17	18.2
O=C(O)c1ccc2c3c(ncnc13)-c1ccccc1C2=O	2.51	> 29.9	51.6	> 100	27.3 µM	> 100	3.45	> 28	> 100 µM	> 100	47.5 µM	> 100	37.1 µM	> 100	3.52	> 100
c1ccc(Nn2c(CCCCCCCCc3nnc(COc4ccccc4)n3Nc3ccccc3)nnc2COc2ccccc2)cc1	33	> 300			2.55 µM and 9.66 µM	> 300	41.9	> 300	25.8 µM and 88.1 µM	> 300	40 µM and 23.9 µM	> 300	23.5 µM and 70.9 µM	> 300	107	> 300
O=c1oc(-c2ccccc2)cc2cccc(O)c12	17.5	59.1	4.22	> 40.6	63.5 µM	> 100	> 56.9	> 100	> 100 µM	> 100	23.9 µM	52.4	30.1 µM	> 89.9	30.6	> 100
CSc1n(Cc2ccc3ccccc3c2)c(C)c[n+]1Cc1ccc2ccccc2c1	0.569	1.81	1.4	3.83	0.319 µM	1.12	0.431	1.6	0.289 µM	1.04	0.417 µM	1.6	0.69 µM	2.13	0.51	1.72
O=C(NCCN1CCC(O)CC1)c1cc2c(o1)C(=O)c1ccccc1C2=O	0.17	0.326	0.979	2.49	0.282 µM	1.02	0.296	3.43	0.182 µM	0.436	0.322 µM	1.41	1.27 µM	3.55	0.27	0.956
CN1CCN(C(=O)c2c(NC(=O)NS(=O)(=O)c3ccccc3)sc3c2CCCCC3)CC1	26.3	98.6	33.7	98.7	48.2 µM	> 100					53.5 µM	> 100	41.2 µM	> 100		
CN(C)C(=S)/N=c1\ss/c(=N\C(=S)N(C)C)n1-c1ccc(Cl)cc1				> 100		> 100		> 100				> 100		> 100		> 100
O=C(O)C1C(=O)Oc2c(cccc2[N+](=O)[O-])C1O (stereo not drawn)		> 100		> 100		> 100		> 100		> 100		> 100		> 100		> 100
Cc1cccc(Cl)c1NC(=O)c1cnc(Nc2cc(N3CCOCC3)cc(N3CCOCC3)c2)s1	> 4.46	> 10	0.213	> 10	9.98 µM	> 10	0.0181	0.19	> 4.05 µM	> 10	0.0842 µM	> 10	0.0626 µM	> 10	> 3.36	> 10
O=C(Nc1ccc2[nH]c(C(=O)N3CC(CCl)c4c3cc([N+](=O)[O-])c3ccccc43)cc2c1)c1cc2ccccc2o1 (stereo not drawn)	> 1100	> 1100	> 1100	> 1100	33.2 µM	380	> 1100	> 1100	> 1100 µM	> 1100	> 1100 µM	> 1100	> 1100 µM	> 1100	> 1100	> 1100
